From patent publication US11312713B2, “Imidazo[4,5-C]quinoline derivatives as LRRK2 inhibitors” (Pfizer Inc., priority 2017, dated 2022)

Tests used:
[1] = Intrinsic clearance (CLint) in cynomolgus monkey liver microsomes; type: in vitro ADME; conditions: for microsomal CLint at 1 μM / half-life at 1 μM: monkey, liver microsomes, pH 7.4, monkey liver microsomes; for half-life at 1 μM: read-out: T½; for Rate of metabolite / intrinsic clearance in comparison to undeuterated form (95A) / rate of metabolite formation in comparison to undeuterated form (95A): monkey liver microsomes
Experimental: Intrinsic Clearance (CLint) in Cynomolgus Monkey Liver Microsomes
(§1) Incubations (in duplicate) contained either 95A or 96, or both 95A and 96 at final concentrations of 1 μM, pooled cynomolgus monkey liver microsomes (Xenotech, LLC, Lenexa, Kans., 0.25 μM CYP protein equivalent to 0.21 mg/mL protein concentration), NADPH (1.3 mM), magnesium chloride (3.3 mM) and potassium phosphate buffer (100 mM, pH 7.4). The final reaction volume (500 μL) contained 0.003% DMSO, 0.5% acetonitrile. The incubations were conducted at 37° C. and aliquots (50 μL) were removed at 0, 5, 10, 15, 20, 30, 45 and 60 minutes and quenched by addition to cold acetonitrile containing mass spectrometry (MS) internal standard (200 μL). Quenched incubations were vortexed for 1 minute followed by centrifugation at 3000 rpm for 5 minutes at room temperature (Allegra X-12R, Beckman Coulter, Fullerton, Calif.). The supernatant (150 μL) was then removed and added to a 96-deep well injection plate containing 150 μL of water with 0.1% formic acid (v/v). The plates were capped and vortexed for 1 minute and subsequently analyzed using LC-MS/MS as described below. Control incubations were prepared similar without adding the NADPH cofactor to monitor for any non-CYP/FMO metabolism. Discrete standard curves (0.5-2000 nM) were prepared, processed, and analyzed as described above.
(§2) Disappearance of substrates 95A and 96 and formation of metabolites 95 or 96B were determined using an LC-MS/MS system which is comprised of an AB Sciex 6500 triple quadrupole mass spectrometer equipped with an electrospray source (AB Sciex, Framingham, Mass.) and Agilent Technologies Infinity 1290 (Santa Clara, Calif.). A binary gradient was employed with a flow rate of 0.500 mL/min, using 0.1% formic acid in water as the aqueous mobile phase (solvent A) and 0.1% formic acid in acetonitrile (solvent B) as the organic phase. The LC gradient profile begins at 5% solvent B which was ramped to 98% B over 2 minutes and then held for 0.20 minutes and returned to initial conditions (5% B) over 0.5 minutes, for a total run time of 3.00 minutes. The analytical column used was a Phenomenex Kinetex 2.6 μm, 2.1×50 mm (Phenomenex, Torrance, Calif.), with an injection volume of 10 μL. The mass spectrometer was run under positive mode with the source temperature set to 500° C., ionization voltage set to 4.5 kV. The following MS/MS transitions were utilized: for substrate 95A (408→310), substrate 96 (411→313), metabolite 95 (424→326), and metabolite 96B (426→328). Analytes were quantified using Analyst software, version 1.6.2 or earlier (AB Sciex, Framingham, Mass.).

[2] = Intrinsic clearance (CLint) in human liver microsomes; type: in vitro ADME; conditions: for microsomal CLint at 1 μM / half-life at 1 μM: human, liver microsomes, pH 7.4, human liver microsomes; for half-life at 1 μM: read-out: T½; for Rate of metabolite / intrinsic clearance in comparison to undeuterated form (95A) / rate of metabolite formation in comparison to undeuterated form (95A): human liver microsomes
Experimental: Intrinsic Clearance (CLint) in Human Liver Microsomes
as §1, with “The” for “Incubations (in duplicate) contained either 95A or 96, or both 95A and 96 at final concentrations of 1 μM, pooled cynomolgus monkey liver microsomes (Xenotech, LLC, Lenexa, Kans., 0.25 μM CYP protein equivalent to 0.21 mg/mL protein concentration), NADPH (1.3 mM), magnesium chloride (3.3 mM) and potassium phosphate buffer (100 mM, pH 7.4). The”, “vortex” for “vortexed”, “(v/v), the” for “(v/v). The”
as §2

mutant G2019S LRRK2 = mutant G2019S LRRK2 (Homo sapiens (Human), UniProt Q5S007, G2019S); test: LRRK2 kinase assay (LanthaScreen), G2019S mutant; type: biochemical; conditions: G2019S mutant LRRK2; LanthaScreen, LRRKtide substrate; read-out: LRRK2, G2019S IC50
Procedure, shortened: (§3)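 GST-tagged truncated enzyme (2 μg/mL) phosphorylates 100 nM fluorescein-LRRKtide with 1 mM ATP in HEPES pH 7.5, 3 mM MgCl2, DTT, Brij35; 30 min, room temperature, compound dose response top 3 μM. Stopped with EDTA; phospho-ERM detected by terbium anti-phospho-ERM TR-FRET; identical conditions for both enzymes.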

[3] = Human liver microsomes enzyme kinetics (metabolite formation); type: in vitro ADME
Experimental: Human Liver Microsomes Enzyme Kinetics
Incubations (in triplicate) contained 95A or 96 (1-1000 μM, final concentrations), pooled human liver microsomes (BD Biosciences, Bedford, Mass., 0.25 protein concentration, NADPH (1.3 mM), magnesium chrolide (5 mM) and potassium phosphate buffer (100 mM, pH 7.4). The final reaction volume (100 μL) contained 1 acetonitrile. The incubations were conducted at 37° C. At time points of 15 minutes for 95A, or 30 min for 96, 50 μL of incubate was quenched by the addition of 200 μL of cold acetonitrile containing 0.1% formic acid (v/v) and mass spectrometry (MS) internal standard. Quenched samples were vortexed for 1 minute followed by centrifugation at 3000 rpm for 5 minutes at room temperature (Allegra X-12R, Beckman Coulter, Fullerton, Calif.). The supernatant (150 μL) was placed into a clean injection sample block and dried down under nitrogen gas, then reconstituted with 150 μL of water containing 0.1% formic acid (v/v). The plates were capped and vortexed for 1 minute and subsequently analyzed using LC-MS/MS as described below. Formation of metabolites 95 (from substrate 95A) and 96B (from substrate 96) was quantitated using a standard curve (0.5-5000 nM) generated using a synthetic standard of substrate 95. Standard curve samples were prepared, processed, and analyzed as described above.
as §2

[4] = biological target: LRRK2, WT (GST-tagged truncated LRRK2) (Homo sapiens, UniProt Q5S007); test: LRRK2 kinase assay (LanthaScreen), wild type; type: biochemical; conditions: wild type LRRK2; LanthaScreen, LRRKtide substrate
Procedure, shortened: as §3

[5] = combined substrates 95A and 96 - competition
[6] = formation of metabolite 95 (from 95A) or 96B (from 96), human liver microsomes
[7] = combined substrates (competition)
[8] = individual substrates, metabolite 95 from 95A, 96B from 96

Chain of mutant G2019S LRRK2 (Q5S007 whole entry G2019S, the tested form may be a part): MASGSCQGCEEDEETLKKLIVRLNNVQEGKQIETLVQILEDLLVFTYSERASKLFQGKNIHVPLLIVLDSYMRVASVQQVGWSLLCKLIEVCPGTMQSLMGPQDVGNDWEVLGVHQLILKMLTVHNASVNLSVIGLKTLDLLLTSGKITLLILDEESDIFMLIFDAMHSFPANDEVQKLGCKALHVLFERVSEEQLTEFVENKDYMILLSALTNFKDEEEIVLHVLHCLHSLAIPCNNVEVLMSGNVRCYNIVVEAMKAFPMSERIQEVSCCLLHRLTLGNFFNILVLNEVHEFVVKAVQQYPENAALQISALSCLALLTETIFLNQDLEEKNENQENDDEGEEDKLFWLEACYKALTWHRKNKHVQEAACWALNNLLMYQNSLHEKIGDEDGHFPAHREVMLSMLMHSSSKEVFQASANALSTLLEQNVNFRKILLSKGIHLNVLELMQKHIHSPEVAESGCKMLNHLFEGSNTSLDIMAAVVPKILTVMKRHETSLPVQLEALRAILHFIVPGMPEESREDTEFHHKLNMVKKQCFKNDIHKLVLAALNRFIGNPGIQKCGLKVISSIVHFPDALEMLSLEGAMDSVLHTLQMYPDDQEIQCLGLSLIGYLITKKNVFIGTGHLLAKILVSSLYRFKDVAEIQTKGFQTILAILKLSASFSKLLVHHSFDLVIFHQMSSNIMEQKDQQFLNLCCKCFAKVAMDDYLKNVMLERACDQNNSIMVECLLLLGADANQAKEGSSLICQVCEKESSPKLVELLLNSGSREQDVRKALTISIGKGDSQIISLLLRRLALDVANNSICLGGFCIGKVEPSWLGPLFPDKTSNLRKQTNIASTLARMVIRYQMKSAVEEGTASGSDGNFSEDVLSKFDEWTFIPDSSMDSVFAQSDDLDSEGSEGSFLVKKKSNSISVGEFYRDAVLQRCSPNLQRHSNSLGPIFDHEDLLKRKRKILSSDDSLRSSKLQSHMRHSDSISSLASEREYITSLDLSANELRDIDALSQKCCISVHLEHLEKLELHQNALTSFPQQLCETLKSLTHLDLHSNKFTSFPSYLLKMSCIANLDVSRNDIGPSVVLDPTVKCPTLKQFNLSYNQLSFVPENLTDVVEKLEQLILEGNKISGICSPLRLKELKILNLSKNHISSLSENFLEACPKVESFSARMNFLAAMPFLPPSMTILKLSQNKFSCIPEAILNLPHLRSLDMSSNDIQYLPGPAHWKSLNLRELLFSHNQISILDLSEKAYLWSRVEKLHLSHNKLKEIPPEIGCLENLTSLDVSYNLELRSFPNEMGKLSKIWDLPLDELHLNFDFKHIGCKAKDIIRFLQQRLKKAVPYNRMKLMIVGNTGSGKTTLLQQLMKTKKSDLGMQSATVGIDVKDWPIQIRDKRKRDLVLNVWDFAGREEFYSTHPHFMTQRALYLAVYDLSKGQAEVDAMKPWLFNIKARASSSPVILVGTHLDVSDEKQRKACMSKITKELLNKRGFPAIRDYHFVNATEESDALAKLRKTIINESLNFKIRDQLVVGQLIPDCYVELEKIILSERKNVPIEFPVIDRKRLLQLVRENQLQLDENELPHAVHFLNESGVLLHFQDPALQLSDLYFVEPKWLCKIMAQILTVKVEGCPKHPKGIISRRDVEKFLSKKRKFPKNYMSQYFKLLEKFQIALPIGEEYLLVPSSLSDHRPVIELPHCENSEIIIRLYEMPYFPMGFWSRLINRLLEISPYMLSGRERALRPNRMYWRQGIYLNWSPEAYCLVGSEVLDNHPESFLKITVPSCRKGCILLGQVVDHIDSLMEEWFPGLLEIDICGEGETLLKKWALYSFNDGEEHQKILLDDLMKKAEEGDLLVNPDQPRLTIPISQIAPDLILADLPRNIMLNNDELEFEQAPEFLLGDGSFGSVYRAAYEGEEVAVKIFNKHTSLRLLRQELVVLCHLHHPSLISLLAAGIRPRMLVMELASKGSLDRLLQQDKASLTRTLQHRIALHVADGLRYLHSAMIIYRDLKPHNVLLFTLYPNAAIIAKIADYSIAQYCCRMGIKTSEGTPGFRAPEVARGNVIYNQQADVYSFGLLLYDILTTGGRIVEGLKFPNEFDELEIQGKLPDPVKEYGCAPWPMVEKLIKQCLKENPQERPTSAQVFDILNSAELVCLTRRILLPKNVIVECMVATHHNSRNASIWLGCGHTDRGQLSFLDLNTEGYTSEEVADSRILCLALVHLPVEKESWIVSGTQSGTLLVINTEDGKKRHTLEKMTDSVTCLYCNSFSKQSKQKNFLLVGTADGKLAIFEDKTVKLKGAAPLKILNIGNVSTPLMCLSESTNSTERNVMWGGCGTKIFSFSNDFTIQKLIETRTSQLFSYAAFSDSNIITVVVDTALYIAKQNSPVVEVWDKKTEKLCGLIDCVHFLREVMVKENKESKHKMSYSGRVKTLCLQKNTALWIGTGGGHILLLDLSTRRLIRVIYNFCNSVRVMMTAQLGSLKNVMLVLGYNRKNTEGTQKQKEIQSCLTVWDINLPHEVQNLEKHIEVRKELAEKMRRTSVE

Row | IC50 (mutant G2019S LRRK2) | IC50 [4] | SMILES | microsomal CLint at 1 μM [1, 5] | half-life at 1 μM [1, 5] | microsomal CLint at 1 μM ([1]; individual substrates, 1 μM) | half-life at 1 μM ([1]; individual substrates, 1 μM) | microsomal CLint at 1 μM [2, 5] | half-life at 1 μM [2, 5] | microsomal CLint at 1 μM ([2]; individual substrates, 1 μM) | half-life at 1 μM ([2]; individual substrates, 1 μM) | other results
1 | – | – | [2H]C([2H])([2H])c1cnc(Cc2nc3cnc4ccc(Cl)cc4c3n2[C@@H]2CCO[C@H](C)C2)cn1 [Example 96, 8-chloro-2-{[5-(^2H3)methylpyrazin-2-yl]methyl}-1-[(2R,4R)-2-methyltetrahydro-2H-pyran-4-yl]-1H-imidazo[4,5-c]quinoline] | 110 µL/min/mg | 29.9 min | 151 µL/min/mg | 21.9 min | 6.86 µL/min/mg | 127 min | 6.68 µL/min/mg | 90.4 min | Rate of metabolite [1, 5]: 25.19 nmol/min/mg; intrinsic clearance in comparison to undeuterated form (95A) [1, 7]: decreased intrinsic clearance; rate of metabolite formation in comparison to undeuterated form (95A) [1, 7]: lower rate of metabolite formation; intrinsic clearance in comparison to undeuterated form (95A) ([1]; individual substrates): decreased intrinsic clearance; rate of metabolite formation in comparison to undeuterated form (95A) ([1]; individual substrates): lower rate of metabolite (96B) formation; Rate of metabolite [1, 8]: 22.83 nmol/min/mg; Rate of metabolite [2, 5]: 1.65 nmol/min/mg; intrinsic clearance in comparison to undeuterated form (95A) [2, 7]: decreased intrinsic clearance; rate of metabolite formation in comparison to undeuterated form (95A) [2, 7]: lower rate of metabolite formation; intrinsic clearance in comparison to undeuterated form (95A) ([2]; individual substrates): decreased intrinsic clearance; rate of metabolite formation in comparison to undeuterated form (95A) ([2]; individual substrates): lower rate of metabolite (96B) formation; Rate of metabolite [2, 8]: 1.10 nmol/min/mg; intrinsic clearance in comparison to undeuterated form (95A) ([3]; human liver microsomes enzyme kinetics): decreased intrinsic clearance
2 | 13.9 nM | 9.73 nM | Cc1cc(Cc2nc3cnc4ccc(Cl)cc4c3n2[C@@H]2CCN(C)C2)ncn1 [Example 40, 8-chloro-2-[(6-methylpyrimidin-4-yl)methyl]-1-[(3R)-1-methylpyrrolidin-3-yl]-1H-imidazo[4,5-c]quinoline] | – | – | – | – | – | – | – | – | –
3 | 4.51 nM | 7.04 nM | Cc1cnn(Cc2nc3cnc4ccc(Cl)cc4c3n2C2CN(C)CC2(F)F)n1 (stereo not drawn) [Example 87, 8-chloro-1-(4,4-difluoro-1-methylpyrrolidin-3-yl)-2-[(4-methyl-2H-1,2,3-triazol-2-yl)methyl]-1H-imidazo[4,5-c]quinoline] | – | – | – | – | – | – | – | – | –
4 | 5.06 nM | 18 nM | N#CCC1CC(n2c(C3CCC3)nc3cnc4ccc(Cl)cc4c32)CCO1 (single isomer, unassigned) [Example 11, [cis-4-(8-Chloro-2-cyclobutyl-1H-imidazo[4,5-c]quinolin-1-yl)tetrahydro-2H-pyran-2-yl]acetonitrile] | – | – | – | – | – | – | – | – | –

Row | SMILES | IC50 (mutant G2019S LRRK2) | IC50 [4] | microsomal CLint at 1 μM [1, 5] | half-life at 1 μM [1, 5] | microsomal CLint at 1 μM ([1]; individual substrates, 1 μM) | half-life at 1 μM ([1]; individual substrates, 1 μM) | microsomal CLint at 1 μM [2, 5] | half-life at 1 μM [2, 5] | microsomal CLint at 1 μM ([2]; individual substrates, 1 μM) | half-life at 1 μM ([2]; individual substrates, 1 μM) | other results
5 | Cc1cnc(Cc2nc3cnc4ccc(Cl)cc4c3n2[C@@H]2CCO[C@H](C)C2)cn1 [Example 95A, 8-chloro-2-[(5-methylpyrazin-2-yl)methyl]-1-[(2R,4R)-2-methyltetrahydro-2H-pyran-4-yl]-1H-imidazo[4,5-c]quinoline] | 6.06 nM | – | 193 µL/min/mg | 17.2 min | 215 µL/min/mg | 15.3 min | 14 µL/min/mg | 65.9 min | 16 µL/min/mg | 54.4 min | Km [3, 6]: 15.2 µM; Vmax [3, 6]: 0.229 nmol/min/mg; microsomal CLint ([3]; pH 7.4, formation of metabolite 95 (from 95A) or 96B (from 96), human liver microsomes): 15.1 µL/min/mg
